Results taken from PubChem BioAssay (NCI).
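Results reflect a 48-hour exposure of cells in 96-well plates to compound at five concentrations. GI50 = concentration required for 50% inhibition of growth. The concentration for full growth arrest is given as TGI.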

How the values were obtained:
Test in all cases: DTP human tumour cell line panel, 48 h
[1] = tested on: NCI-H460 lung
[2] = tested on: SF-268 CNS
[3] = tested on: MOLT-4 leukemia
[4] = tested on: EKVX NSCLC
[5] = tested on: MDA-MB-231 breast
[6] = tested on: MDA-MB-435
[7] = tested on: UACC-62 melanoma
[8] = tested on: SK-MEL-2 melanoma
[9] = tested on: HL-60(TB) leukemia
[10] = tested on: SK-MEL-28 melanoma
[11] = tested on: SR leukemia
[12] = tested on: HOP-92 NSCLC
[13] = tested on: MALME-3M melanoma
[14] = tested on: ACHN renal
[15] = tested on: UO-31 renal
[16] = tested on: RPMI-8226 leukemia
[17] = tested on: SW-620 colon
[18] = tested on: K-562 leukemia
[19] = tested on: SK-OV-3 ovarian
[20] = tested on: OVCAR-3 ovarian
[21] = tested on: SN12C renal
[22] = tested on: U251 CNS
[23] = tested on: T-47D breast
[24] = tested on: A498 renal
[25] = tested on: HCC-2998 colon
[26] = tested on: HS 578T breast
[27] = tested on: NCI-H226 lung
[28] = tested on: HOP-62 NSCLC
[29] = tested on: BT-549 breast
[30] = tested on: LOX IMVI melanoma
[31] = tested on: CAKI-1 renal
[32] = tested on: 786-0 renal
[33] = tested on: HCT-116 colon
[34] = tested on: NCI-H522 lung
[35] = tested on: UACC-257 melanoma
[36] = tested on: COLO 205 colon
[37] = tested on: IGROV1 ovarian
[38] = tested on: TK-10 renal
[39] = tested on: PC-3 prostate
[40] = tested on: DU-145 prostate
[41] = tested on: CCRF-CEM leukemia
[42] = tested on: MCF7 breast
[43] = tested on: SNB-75 CNS
[44] = tested on: OVCAR-4 ovarian
[45] = tested on: SK-MEL-5 melanoma
[46] = tested on: SNB-19 CNS
[47] = tested on: HCT-15 colon
[48] = tested on: NCI/ADR-RES ovarian
[49] = tested on: KM12 colon
[50] = tested on: HT29 colon
[51] = tested on: NCI-H23 lung
[52] = tested on: SF-539 CNS
[53] = tested on: SF-295 CNS
[54] = tested on: OVCAR-8 ovarian
[55] = tested on: A549 NSCLC
[56] = tested on: OVCAR-5 ovarian
[57] = tested on: M14 melanoma
[58] = tested on: RXF 393 renal

## CC(=O)O[C@H](C[C@H](C(C)C)N(C)C(=O)[C@@H](NC(=O)[C@H]1CCCCN1C)C(C)C)c1nc(C(=O)N[C@@H](Cc2ccccc2)C[C@H](C)C(=O)O)c(CCOCc2ccccc2)s1
[1]
  GI50: < 0.001 µM
  TGI: > 10 µM
[2]
  GI50: < 0.001 µM
  TGI: > 10 µM
[3]
  GI50: < 0.001 µM
  TGI: > 10 µM
[4]
  GI50: < 0.001 µM
  TGI: > 10 µM
[5]
  GI50: < 0.001 µM
[6]
  GI50: < 0.001 µM
  TGI: < 0.001 µM
[7]
  GI50: < 0.001 µM
  TGI: > 10 µM
[8]
  GI50: < 0.001 µM
  TGI: > 5.68 µM
[9]
  GI50: < 0.001 µM
  TGI: < 0.001 µM
[10]
  GI50: 0.797 µM
  TGI: > 10 µM
[11]
  GI50: < 0.001 µM
  TGI: > 10 µM
[12]
  GI50: < 0.001 µM
  TGI: > 10 µM
[13]
  GI50: < 0.001 µM
  TGI: > 10 µM
[14]
  GI50: 0.00105 µM
  TGI: > 10 µM
[15]
  GI50: 0.00486 µM
  TGI: > 10 µM
[16]
  GI50: < 0.001 µM
  TGI: > 10 µM
[17]
  GI50: < 0.001 µM
  TGI: > 10 µM
[18]
  GI50: < 0.001 µM
  TGI: > 10 µM
[19]
  GI50: < 0.001 µM
  TGI: > 10 µM
[20]
  GI50: < 0.001 µM
[21]
  GI50: < 0.001 µM
  TGI: > 10 µM
[22]
  GI50: < 0.001 µM
[23]
  GI50: < 0.001 µM
  TGI: > 10 µM
[24]
  GI50: < 0.001 µM
  TGI: 0.00316 µM
[25]
  GI50: < 0.001 µM
  TGI: 0.616 µM
[26]
  GI50: < 0.001 µM
  TGI: > 10 µM
[27]
  GI50: < 0.001 µM
  TGI: 0.00313 µM
[28]
  GI50: < 0.001 µM
  TGI: > 10 µM
[29]
  GI50: < 0.001 µM
  TGI: 0.00816 µM
[30]
  GI50: < 0.001 µM
  TGI: > 10 µM
[31]
  GI50: < 0.001 µM
  TGI: > 10 µM
[32]
  GI50: < 0.001 µM
  TGI: > 10 µM
[33]
  GI50: < 0.001 µM
  TGI: 0.176 µM
[34]
  GI50: < 0.001 µM
  TGI: < 0.001 µM
[35]
  GI50: < 0.001 µM
  TGI: > 10 µM
[36]
  GI50: < 0.001 µM
  TGI: < 0.001 µM
[37]
  GI50: 0.00109 µM
  TGI: > 10 µM
[38]
  GI50: 0.108 µM
  TGI: > 10 µM
[39]
  GI50: < 0.001 µM
  TGI: > 10 µM
[40]
  GI50: < 0.001 µM
  TGI: 0.00119 µM
[41]
  GI50: < 0.001 µM
  TGI: > 10 µM
[42]
  GI50: < 0.001 µM
  TGI: > 10 µM
[43]
  GI50: < 0.001 µM
  TGI: 5.67 µM
[44]
  GI50: 0.00242 µM
  TGI: > 10 µM
[45]
  GI50: < 0.001 µM
  TGI: 0.00159 µM
[46]
  GI50: < 0.001 µM
  TGI: > 10 µM
[47]
  GI50: < 0.001 µM
  TGI: > 10 µM
[48]
  GI50: 0.003 µM
  TGI: 0.0511 µM
[49]
  GI50: < 0.001 µM
[50]
  GI50: < 0.001 µM
  TGI: > 10 µM
[51]
  GI50: < 0.001 µM
  TGI: > 10 µM
[52]
  GI50: < 0.001 µM
  TGI: 0.00174 µM
[53]
  GI50: < 0.001 µM
  TGI: < 0.0297 µM
[54]
  GI50: < 0.001 µM
  TGI: > 10 µM
[55]
  GI50: < 0.001 µM
  TGI: > 10 µM
[56]
  GI50: < 0.001 µM
  TGI: > 10 µM

## COCCOc1cnc2ccn([C@H](C)c3nnc4c(F)cc(-c5cnn(C)c5)cn34)c(=O)c2c1
[1]
  GI50: > 100 µM
  TGI: > 100 µM
[2]
  GI50: > 100 µM
  TGI: > 100 µM
[3]
  GI50: > 100 µM
  TGI: > 100 µM
[4]
  GI50: > 100 µM
  TGI: > 100 µM
[5]
  GI50: > 100 µM
  TGI: > 100 µM
[6]
  GI50: > 100 µM
  TGI: > 100 µM
[7]
  GI50: 56.4 µM
  TGI: > 100 µM
[8]
  GI50: > 100 µM
  TGI: > 100 µM
[9]
  GI50: > 100 µM
  TGI: > 100 µM
[10]
  GI50: > 100 µM
  TGI: > 100 µM
[11]
  GI50: > 100 µM
  TGI: > 100 µM
[12]
  GI50: 54.9 µM
  TGI: > 100 µM
[13]
  GI50: > 100 µM
  TGI: > 100 µM
[14]
  GI50: > 100 µM
  TGI: > 100 µM
[15]
  GI50: 70.6 µM
  TGI: > 100 µM
[16]
  GI50: > 100 µM
  TGI: > 100 µM
[17]
  GI50: > 100 µM
  TGI: > 100 µM
[18]
  GI50: > 100 µM
  TGI: > 100 µM
[19]
  GI50: > 100 µM
  TGI: > 100 µM
[20]
  GI50: > 100 µM
  TGI: > 100 µM
[21]
  GI50: > 100 µM
  TGI: > 100 µM
[22]
  GI50: > 100 µM
  TGI: > 100 µM
[23]
  GI50: > 100 µM
  TGI: > 100 µM
[24]
  GI50: 33.1 µM
  TGI: > 100 µM
[25]
  GI50: > 100 µM
  TGI: > 100 µM
[26]
  GI50: 82.7 µM
  TGI: > 100 µM
[27]
  GI50: > 100 µM
  TGI: > 100 µM
[28]
  GI50: > 100 µM
  TGI: > 100 µM
[29]
  GI50: > 100 µM
  TGI: > 100 µM
[30]
  GI50: > 100 µM
  TGI: > 100 µM
[32]
  GI50: > 100 µM
  TGI: > 100 µM
[33]
  GI50: > 100 µM
  TGI: > 100 µM
[34]
  GI50: > 100 µM
  TGI: > 100 µM
[35]
  GI50: > 100 µM
  TGI: > 100 µM
[36]
  GI50: > 100 µM
  TGI: > 100 µM
[37]
  GI50: > 100 µM
  TGI: > 100 µM
[38]
  GI50: > 100 µM
  TGI: > 100 µM
[39]
  GI50: > 100 µM
  TGI: > 100 µM
[40]
  GI50: > 100 µM
  TGI: > 100 µM
[41]
  GI50: > 100 µM
  TGI: > 100 µM
[42]
  GI50: > 100 µM
  TGI: > 100 µM
[43]
  GI50: 34.9 µM
  TGI: > 100 µM
[44]
  GI50: 52 µM
  TGI: > 100 µM
[45]
  GI50: > 100 µM
  TGI: > 100 µM
[46]
  GI50: > 100 µM
  TGI: > 100 µM
[57]
  GI50: > 100 µM
  TGI: > 100 µM
[47]
  GI50: > 100 µM
  TGI: > 100 µM
[48]
  GI50: > 100 µM
  TGI: > 100 µM
[49]
  GI50: 24.4 µM
  TGI: > 100 µM
[50]
  GI50: > 100 µM
  TGI: > 100 µM
[51]
  GI50: > 100 µM
  TGI: > 100 µM
[52]
  GI50: > 100 µM
  TGI: > 100 µM
[58]
  GI50: > 100 µM
  TGI: > 100 µM
[53]
  GI50: 23.4 µM
  TGI: > 100 µM
[54]
  GI50: > 100 µM
  TGI: > 100 µM
[55]
  GI50: > 100 µM
  TGI: > 100 µM
[56]
  GI50: > 100 µM
  TGI: > 100 µM
